According to PubChem BioAssay (NCI):
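The compound was tested at five concentrations on cells cultured in 96-well plates, with a 48-hour exposure period. GI50 marks 50% less growth. TGI: concentration producing complete growth inhibition.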

Tests used:
Assay in all cases: NCI anticancer screen, dose series, 48 h
[1] = tested on: SF-295 CNS
[2] = tested on: COLO 205 colon
[3] = tested on: OVCAR-3 ovarian
[4] = tested on: PC-3 prostate
[5] = tested on: U251 CNS
[6] = tested on: OVCAR-8 ovarian
[7] = tested on: A498 renal
[8] = tested on: CAKI-1 renal
[9] = tested on: KM12 colon
[10] = tested on: NCI-H23 lung

In the case of `C/C(=N\O)c1cccc(Nc2nc3ccccc3c3occc23)c1`, the TGI [1] is reported as 22.6 µM, the TGI [2] is reported as 26.4 µM and the TGI [3] is reported as 31.8 µM. The TGI [4] was 25.8 µM, the TGI [5] was over 100 µM and the TGI [6] was 32.8 µM. For the same compound, the TGI [7] was 29.2 µM, the TGI [8] was 34.2 µM and the TGI [9] was 27.3 µM.

In the case of `O=C(NCCCCNCCCNC(=O)c1cc(-c2ccccc2)nc2ccccc12)c1cc(-c2ccccc2)nc2ccccc12`, the TGI [1] is reported as 3.17 µM, the TGI [10] is reported as 4.02 µM and the TGI [3] is reported as 2.99 µM. It also gave a TGI [4] of 2.98 µM, a TGI [5] of 3.32 µM and a TGI [6] of 3.06 µM. The TGI [8] was 3.82 µM.

In the case of `COc1ccc(CCc2ccc(O)c(C(=O)O)c2)cc1OC`, the TGI [1] is reported as over 100 µM, the TGI [2] is reported as over 100 µM and the TGI [10] is reported as over 100 µM. For the same compound, the TGI [3] was over 100 µM, the TGI [4] was over 100 µM and the TGI [5] was over 100 µM. The TGI [6] was over 100 µM, the TGI [8] was over 100 µM and the TGI [9] was over 100 µM.

With `CSc1ccc(/C=C2\N=C(c3ccccc3)N(c3nc4c(Cl)cc(Cl)cc4s3)C2=O)cc1` the TGI [1] was 79.7 µM, the TGI [2] was over 100 µM and the TGI [3] was 40 µM. For the same compound, the TGI [4] was 43.3 µM, the TGI [5] was 37.3 µM and the TGI [6] was over 100 µM. The TGI [7] was 40.8 µM, the TGI [8] was over 100 µM and the TGI [9] was 88.6 µM.

In the case of `CC1C(c2ccc3c(c2)OCO3)c2cc3c(cc2OC1N1CCCCC1)OCO3` (centres undefined), the TGI [1] is reported as over 100 µM, the TGI [2] is reported as over 100 µM and the TGI [10] is reported as over 100 µM. The TGI [3] was over 100 µM, the TGI [4] was over 100 µM and the TGI [6] was over 100 µM. The TGI [8] was 79.9 µM and the TGI [9] was over 100 µM.

Compound `COc1ccc(CCCC(=O)O)c(C)c1` has a TGI [1] of over 100 µM, a TGI [10] of over 100 µM and a TGI [3] of 97.5 µM. It also gave a TGI [4] of over 100 µM, a TGI [5] of 60.8 µM and a TGI [6] of over 100 µM. It also gave a TGI [7] of 52.6 µM, a TGI [8] of 51.1 µM and a TGI [9] of over 100 µM.

`COc1ccc(Cl)cc1NC(=O)c1c(NC(=O)C(F)(F)C(F)(F)F)sc2c1CCCCC2` showed a GI50 [1] of 1030 nM, a TGI [1] of 3.73 µM and a GI50 [2] of 1300 nM. The TGI [2] was 2.8 µM, the GI50 [10] was 1540 nM and the TGI [10] was 7.38 µM. It also gave a GI50 [4] of 1470 nM, a TGI [4] of 11.3 µM and a GI50 [5] of 1890 nM. It also gave a TGI [5] of over 100 µM, a GI50 [6] of 2020 nM and a TGI [6] of over 100 µM. It also gave a GI50 [7] of 312 nM, a TGI [7] of 2.06 µM and a GI50 [8] of 1030 nM. The TGI [8] was 4.86 µM.

`CN(C)CCNC(=O)c1ccc(NCCCN(C)CCCNc2ccc(C(=O)NCCN(C)C)c3[nH]c4ccc([N+](=O)[O-])cc4c(=O)c23)c2c(=O)c3cc([N+](=O)[O-])ccc3[nH]c12` showed a TGI [2] of 0.502 µM, a TGI [10] of 0.537 µM and a TGI [3] of 1.94 µM. It also gave a TGI [4] of 0.535 µM, a TGI [5] of 0.162 µM and a TGI [6] of 1.3 µM. It also gave a TGI [7] of 0.537 µM and a TGI [8] of 3.75 µM.

Compound `CC(=O)O[C@H]1C(=O)[C@@]2(C)[C@H]([C@H](OC(=O)c3ccccc3)[C@]3(O)C[C@H](OC(=O)[C@H](O)[C@@H](NC(=O)CC(C)C)c4ccccc4)C(C)=C1C3(C)C)[C@]1(OC(C)=O)CO[C@@H]1C[C@@H]2O` has a TGI [1] of 0.508 µM, a TGI [2] of 0.0112 µM and a TGI [10] of over 10 µM. For the same compound, the TGI [5] was over 10 µM, the TGI [6] was over 3.24 µM and the TGI [7] was over 10 µM. For the same compound, the TGI [8] was over 10 µM.

Work on `CCOC(=O)COc1c(OC)cc(C2C3=C(COC3=O)Oc3cc4c(cc32)OCO4)cc1OC` (centres undefined) yielded a TGI [1] of over 26.3 µM, a TGI [2] of 4.88 µM and a TGI [10] of 14.2 µM. It also gave a TGI [3] of 78.4 µM, a TGI [4] of over 100 µM and a TGI [5] of 81.9 µM. The TGI [6] was 47 µM, the TGI [8] was 38.1 µM and the TGI [9] was over 100 µM.

In the case of `Nc1nc(N)c2nc(-c3ccco3)cnc2n1`, the TGI [1] is reported as over 100 µM, the TGI [2] is reported as over 100 µM and the TGI [10] is reported as over 100 µM. The TGI [3] was over 100 µM, the TGI [5] was over 100 µM and the TGI [6] was over 100 µM. The TGI [7] was over 100 µM, the TGI [8] was over 100 µM and the TGI [9] was over 100 µM.

`COc1ccc(C2SCC(=O)N2NC(=O)C(C)Oc2ccccc2Cl)cc1` (centres undefined) showed a TGI [1] of over 100 µM, a TGI [2] of 64.4 µM and a TGI [10] of over 100 µM. The TGI [4] was over 100 µM, the TGI [5] was over 100 µM and the TGI [6] was over 100 µM. The TGI [7] was 92.2 µM, the TGI [8] was over 100 µM and the TGI [9] was over 100 µM.

Compound `COc1cc2cc(C(=O)N3CC(CCl)c4c3cc(N(C)C)c3ccccc43)[nH]c2c(OC)c1OC` (centres undefined) has a TGI [1] of 0.0381 µM, a TGI [10] of 0.0127 µM and a TGI [3] of 0.0377 µM. It also gave a TGI [4] of 0.18 µM, a TGI [5] of 4.66 µM and a TGI [6] of 0.0206 µM. For the same compound, the TGI [7] was 0.0174 µM, the TGI [8] was under 0.01 µM and the TGI [9] was 1.09 µM.

`CC1(C)N=C(/C=N/O)C(C)(C)N1O` gave a TGI [1] of over 100 µM, a TGI [2] of over 100 µM and a TGI [10] of over 100 µM. For the same compound, the TGI [3] was over 100 µM, the TGI [4] was over 100 µM and the TGI [5] was over 100 µM. The TGI [6] was over 100 µM, the TGI [7] was over 100 µM and the TGI [9] was over 100 µM.

`Cc1cc(O)c(/C=N/c2nc(-c3cccc([N+](=O)[O-])c3)cs2)c(=O)o1` was tested, and the TGI [1] was over 100 µM, the TGI [2] was over 100 µM and the TGI [10] was over 100 µM. The TGI [3] was over 100 µM, the TGI [4] was over 100 µM and the TGI [5] was over 100 µM. For the same compound, the TGI [6] was over 100 µM, the TGI [8] was over 100 µM and the TGI [9] was over 100 µM.

In the case of `CSc1nc(O)c(/C=C2\C=Nc3ccccc32)[nH]1`, the TGI [2] is reported as over 100 µM, the TGI [10] is reported as over 100 µM and the TGI [3] is reported as over 100 µM. The TGI [4] was over 100 µM, the TGI [5] was over 100 µM and the TGI [6] was over 100 µM. It also gave a TGI [7] of over 100 µM.

Compound `Cc1ccc(/C=N/NC2=NCCN2)s1` has a TGI [1] of over 100 µM, a TGI [2] of over 100 µM and a TGI [10] of over 100 µM. It also gave a TGI [3] of over 100 µM, a TGI [4] of over 100 µM and a TGI [5] of over 100 µM. It also gave a TGI [6] of over 100 µM, a TGI [8] of over 100 µM and a TGI [9] of over 100 µM.

Work on `O=C(O)c1cc(O)c2c(c1)Cc1cccc(O)c1C2=O` yielded a TGI [1] of 50.5 µM, a TGI [2] of 57.4 µM and a TGI [10] of over 100 µM. For the same compound, the TGI [3] was 36.9 µM, the TGI [4] was over 100 µM and the TGI [5] was 37.3 µM. The TGI [6] was 55.8 µM and the TGI [7] was over 100 µM.

`CCOC(=O)/C=C(\N=P(c1ccccc1)(c1ccccc1)c1ccccc1)C(F)(F)C(F)(F)C(F)(F)C(F)(F)C(F)(F)F` was tested, and the TGI [1] was over 100 µM, the TGI [2] was over 100 µM and the TGI [10] was over 100 µM. For the same compound, the TGI [3] was over 100 µM, the TGI [4] was over 100 µM and the TGI [5] was over 100 µM. For the same compound, the TGI [7] was 72.4 µM, the TGI [8] was over 100 µM and the TGI [9] was over 100 µM.

Compound `CCc1n[nH]c(=O)n1NC(=O)c1ccccc1C(=O)O` has a TGI [1] of over 100 µM, a TGI [2] of over 100 µM and a TGI [10] of over 100 µM. The TGI [3] was over 100 µM, the TGI [4] was over 100 µM and the TGI [5] was over 100 µM. For the same compound, the TGI [6] was over 100 µM and the TGI [9] was over 100 µM.

Work on `CCOC(=O)c1c(C)[nH]c(/C=C2\N=C(c3ccc[nH]3)C=C2OC)c1C` yielded a GI50 [1] of 105 nM, a TGI [1] of 0.624 µM and a GI50 [10] of 235 nM. The TGI [10] was 2.03 µM, the GI50 [3] was 15.2 nM and the TGI [3] was 0.299 µM. For the same compound, the GI50 [4] was 44.2 nM, the TGI [4] was 2.45 µM and the GI50 [5] was 52 nM. It also gave a TGI [5] of 1.59 µM, a GI50 [6] of 35.8 nM and a TGI [6] of 1.61 µM. The GI50 [7] was 1870 nM, the TGI [7] was 5.7 µM and the GI50 [8] was 46.1 nM. It also gave a TGI [8] of 0.795 µM, a GI50 [9] of 15 nM and a TGI [9] of 1.32 µM.

For `COc1cc(C(=O)Nc2c3ccccc3nc3ccccc23)cc(OC)c1OC`, the TGI [1] was over 100 µM, the TGI [2] was over 100 µM and the TGI [10] was over 100 µM. The TGI [3] was over 100 µM, the TGI [4] was over 100 µM and the TGI [5] was over 100 µM. It also gave a TGI [6] of over 100 µM, a TGI [8] of over 67 µM and a TGI [9] of over 100 µM.
